Results from US8865714B2, “Piperazine compound capable of inhibiting prostaglandin D synthase” (Taiho Pharmaceutical Co., Ltd., priority 2009, dated 2014).

Legend:
[1] = system: eosinophil infiltration in guinea pigs with antigen-induced rhinitis; assay: Eosinophil infiltration inhibiting action in guinea pigs with antigen-induced rhinitis; type: in vivo; details: 30 mg/kg orally 3 times; washing 6 hours after induction; * = significance level below 0.05 vs control group
Protocol: (§1) A physiological saline solution containing 1 mg/mL of ovalbumin was subcutaneously injected into the back of 5-week-old male Std:Hartley guinea pigs in an amount of 1 mL/body for active sensitization (initial sensitization). One week and two weeks after initial sensitization, 20 μL of a physiological saline solution containing 10 mg/mL of ovalbumin was instilled into each nasal cavity using a micropipette (sensitization by nasal administration). Three weeks after initial sensitization, 20 μL of a physiological saline solution containing 10 mg/mL of ovalbumin was instilled into each nasal cavity using a micropipette to induce a rhinitis reaction.
The test compound (30 mg/kg) was orally administered 3 times in total (2 times at sensitization by nasal administrations and 1 time at the induction of a rhinitis reaction), 1 hour before sensitization or induction. The animals in the control group only received the medium orally.
6 hours after the induction of a rhinitis reaction, the nasal cavities were washed under pentobarbital sodium anesthesia. A nasal cavity washing liquid (phosphate buffered saline containing 3 mM of EDTA and 10 μM of indomethacin) was flushed using a Peristaltic Pump (Gilson, Inc.) in the direction from the trachea to the upper respiratory tract at the flow rate of 1 mL/min, and the liquid flowing out from the nasal cavities was collected for 3 minutes. The collected liquid was filtered through a cell strainer (40 μm), and centrifuged at 4° C., 300×g, for 10 minutes. Subsequently, the supernatant was removed by suction. 250 μL of nasal cavity washing liquid was added to the cell pellet to form a suspension. The total number of cells (×10^5 cells) in the cell suspension was determined using an automated blood cell counter (F-820, Sysmex Corporation).
A cell smear was prepared using a centrifugal device to collect cells (Cytospin-3, Shandon). After the cells were stained using a cell stain solution, the number of monocytes, the number of eosinophils, and the number of neutrophils were counted to obtain 300 cells in total by observation under a microscope (200-times magnification). The component ratio of each cell was calculated, and the number of eosinophils in the nasal cavity washing liquid was determined by the following formula. Number of eosinophils([…])=(Eosinophil count÷total count(300))×total number of cells
The rate of decrease in the number of eosinophils in the nasal cavity washing liquid was regarded as the eosinophil infiltration inhibition rate, and determined by the following formula. […] Inhibition rate(%)={(Number of eosinophils in the control group−number of eosinophils in the compound-administered group)÷(number of eosinophils in the control group−number of eosinophils in the normal group)}×100
16 cases were obtained from each group, and the number of eosinophils in the nasal cavity washing fluid was compared between the control group and each compound-administered group. Note that when the significance level was below 0.05, the eosinophil infiltration inhibiting action was considered to be present and indicated by a symbol (*) in the table.

C57BL/10-mdx (mdx) mice = assay: Forelimb grip strength test in mice; type: in vivo; details: 30 mg/kg orally once a day for 4 weeks, * = significance level below 0.05 vs control group
Protocol: 4-week-old male C57BL/10-mdx (mdx) mice were used as a disease group, and 4-week-old male C57BL/10Sn (wild) mice were used as a normal group in the test. A acclimation period was provided after the arrival of the mice. An initial value of each individual was measured at 5 weeks of age, and 10 mice were assigned to each group. From the following day, the test compound (30 mg/kg) was orally administered to the mice once a day consecutively for 4 weeks. The animals in the control group only received the vehicle orally. The forelimb grip strength was measured at 4 weeks after the start of the administration. A value obtained by dividing the average of 5 forelimb grip strength measurement values (kg) determined using a small animal grip strength measurement device (GPM-100M, Melquest) by the body weight (kg) was used as the evaluation index (reference literature: Muscle Nerve., 35, 43-48 (2007)).
9 or more cases were obtained from each group to determine whether expression of forelimb grip strength enhancing action occurred. First, a significant decrease in the value of the control group compared to that of the normal group was confirmed, and then the value of the control group was compared with the value of the compound-administered group. When the significance level was below 0.05, the action was considered to be present and indicated by symbols (#) and (*) in the table.

[2] = system: PGD2 production in the nasal cavities of guinea pigs with antigen-induced rhinitis; assay: PGD2 production inhibiting action in the nasal cavities of guinea pigs with antigen-induced rhinitis; type: in vivo; details: for Rate of decrease in PGD2 concentration in the nasal cavity washing fluid (%): 30 mg/kg orally 1 hour before induction, washing 30 minutes after induction, * = significance level below 0.05 vs control group
Protocol: as §1
The test compound (30 mg/kg) was orally administered 1 hour before induction of a rhinitis reaction. The animals in the control group only received the medium orally.
30 minutes after the induction of a rhinitis reaction, the nasal cavities were washed under pentobarbital sodium anesthesia. A nasal cavity washing liquid (phosphate buffered saline containing 3 mM of EDTA and 10 μM of indomethacin) was flushed using a Peristaltic Pump (Gilson, Inc.) in the direction from the trachea to the upper respiratory tract at the flow rate of 1 mL/min, and the liquid flowing out from the nasal cavities was collected for 1 minute. The collected liquid was centrifuged to separate the supernatant as the nasal cavity washing fluid. The concentration of PGD2 in the nasal cavity washing fluid was determined using an EIA kit (Prostaglandin D2-MOX EIA kit, Cayman Chemical).
The rate of decrease in PGD2 in the nasal cavity washing fluid was calculated by the following formula. […] Rate of decrease in PGD2 in the nasal cavity washing fluid(%)={(PGD2 concentration in the control group−PGD2 concentration in the compound-administered group)÷(PGD2 concentration in the control group−PGD2 concentration in the normal group)}×100 […]

human H-PGDS = human H-PGDS (Homo sapiens (Human), UniProt O60760); assay: Hematopoietic prostaglandin D synthase (H-PGDS) inhibiting action; type: biochemical; details: human H-PGDS, [14C] prostaglandin H2 10 μM
Sequence of human H-PGDS (O60760 whole entry): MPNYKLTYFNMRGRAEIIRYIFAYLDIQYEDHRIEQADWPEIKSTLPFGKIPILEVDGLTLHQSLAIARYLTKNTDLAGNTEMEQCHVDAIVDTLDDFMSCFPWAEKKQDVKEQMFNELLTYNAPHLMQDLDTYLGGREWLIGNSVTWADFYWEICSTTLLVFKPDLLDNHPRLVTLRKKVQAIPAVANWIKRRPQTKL
Protocol: More specifically, the reaction mixture (49 μL) containing 100 mM Tris-HCl (pH 8.0), 1 mM reduced glutathione, 0.1 mg/mL γ-globulin, and human H-PGDS (q.s.), and a compound (final concentration: 0.01-100 μM) was preincubated at 25° C. for 5 minutes. Note that a DMSO solution (final concentration: 1%) was added to the solvent control group. Subsequently, 1 μL of [14C] prostaglandin H2 (final concentration: 10 μM) was added to start the reaction. One minute after the start of the reaction, 250 μL of a reaction stopper solution (diethylether/methanol/1 M citric acid (30/4/1) at a temperature of −20° C. was added to stop the reaction. After the reaction was stopped, 50 μL of the upper layer portion (organic solvent phase) was applied to a TLC plate and developed at −20° C. for 45 minutes (developing solvent: diethylether/methanol/acetic acid (90/2/1)). After drying the TLC plate, the TLC plate was exposed to an imaging plate for 1 to 24 hours, and the radioactivity corresponding to prostaglandin D2 (PGD2) was analyzed using an image analyzer (produced by Fujifilm Corporation).

Row | H-PGDS inhibition rate (%) (human H-PGDS; compound at 0.1 μM, relative to the control group) | IC50 (human H-PGDS; read-out: IC50) [nM] | Molecule | Eosinophil infiltration inhibition rate (%) [1] | Forelimb grip strength measurement value/body weight (kg/kg) (C57BL/10-mdx (mdx) mice) | Rate of decrease in PGD2 concentration in the nasal cavity washing fluid (%) [2] | PGD2 production inhibiting action (in words) ([2]; 30 mg/kg orally, summary of Table 2)
1 | – | – | Cc1cc2nc(NC(=O)N3CCN(C(=O)c4cccc(F)c4)CC3)sc2cc1C [Reference Example 14, 4-(3-fluorobenzoyl)-piperazine-1-carboxylic acid-(5,6-dimethylbenzothiazol-2-yl)amide] | −25.1% | 4.26 ± 0.22 kg/kg | – | –
2 | – | – | O=C(Nc1nc2ccc(Br)cc2s1)N1CCN(C(=O)c2cccc(F)c2)CC1 [Reference Example 13, 4-(3-fluorobenzoyl)-piperazine-1-carboxylic acid-(6-bromobenzothiazol-2-yl)amide] | 34.2% | 4.37 ± 0.15 kg/kg | – | –
3 | – | – | COc1ccc2nc(NC(=O)N3CCN(C(=O)c4cccc(F)c4)CC3)sc2c1 [Reference Example 16, 4-(3-fluorobenzoyl)piperazine-1-carboxylic acid-(6-methoxybenzothiazol-2-yl)amide] | −108.0* % | 4.29 ± 0.24 kg/kg | – | –
4 | – | – | Cc1ccc2nc(NC(=O)N3CCN(C(=O)c4cccc(F)c4)CC3)sc2c1 [Reference Example 15, 4-(3-fluorobenzoyl)piperazine-1-carboxylic acid-(6-methylbenzothiazol-2-yl)amide] | −133.3* % | 4.20 ± 0.20 kg/kg | – | –
5 | – | – | CON(C)C(=O)c1[nH]c(C)c(-c2nc3ccc(C(=O)c4ccccc4)cc3[nH]2)c1C [Reference Example 19, N-methoxy-N-methyl-4-(5-benzoylbenzimidazol-2-yl)-3,5-dimethylpyrrol-2-carboxamide] | – | – | 77.0* % | have the action
6 | 54.2 | 76 | 4-((1-methylpyrrol-2-yl)-carbonyl)-N-(4-(4-morpholin-1-yl-carbonylpiperidin-1-yl)-phenyl)-1-piperazinecarboxamide [Example 3] | 49.9* % | 4.80 ± 0.09* kg/kg | 77.5* % | –
7 | – | – | O=C(Nc1nc2ccc(Cl)cc2s1)N1CCN(C(=O)c2cccc(F)c2)CC1 [Reference Example 17, 4-(3-fluorobenzoyl)piperazine-1-carboxylic acid-(6-chlorobenzothiazol-2-yl)amide] | 16.6% | 4.48 ± 0.15 kg/kg | – | –
